For data set [1], the system named is nails. Put plainly: In vivo comparison of hexanal composition with citral composition, one hand each. Conditions: same concentrations, panel of 22, four weeks. The arrangement: species or system people. The source says:
The composition of example 1 and also a composition 1a identical to that of example 1, but in which the hexanal has been replaced by citral, in the same concentrations, were the subject of in vivo tests on a new panel of 22 people under the same conditions as those of the tests from example 1. Each person applied the composition with hexanal to the nails of one hand, and the composition with citral to the nails of the other hand. The right hand/left hand choice was random.

A short description of data set [2]: Aging and yellowing tests. Format: physicochemical. On the procedure:
Various aliphatic aldehydes were incorporated into a cosmetic composition, having a formulation corresponding to example 2, at concentrations respectively of 0.001%, 0.002%, 0.005% and 0.01%.
These were methylbutyraldehyde (by way of comparison), hexanal, nonanal, trans-4-decenal, undecanal and undecylenic aldehyde.
The aging, and in particular the tendency toward yellowing, of each composition were tested. The various tests performed comprise holding for one month in an oven at 45° C. and four months in an oven at 50° C., and also exposure to “SUNTEST CPS+”, i.e. in a sealed chamber, regulated at 50° C. under a 500 Watt/m^2 UV/visible lamp for 3×10 hours.
The yellowing was evaluated relative to control compositions having identical formulations, kept at room temperature (20-25° C.), in the dark, for the same duration.

Data set [3] relates to fingernails. Put plainly: In vivo tests of efficacy on a panel of people, polish applied to nails. As to conditions: hexanal 0.05% by weight, panel of 22, four weeks. The source says:
The composition from example 1 was the subject of in vivo tests on a panel of 22 people aged at least 30 years old, over four weeks, in order to evaluate the efficacy and tolerance. […] The polish was applied under normal usage conditions (namely three applications per week).
The marks of general satisfaction with the cosmetic composition oscillated between 16.9 and 18.3/20.
The marks of general satisfaction with the cosmetic composition oscillated between 16 and 17.3/20.

Where [4] appears, read: 0.01% by weight in composition, aging tests relative to controls.
[5] abbreviates: 0.01% in composition, one month in an oven at 45° C., relative to controls at room temperature in the dark.

As for `CCCCCC=O` [hexanal], in data set [1], the “Superiority to citral in improvement of brittle nails” value is “+10%”, the “Superiority to citral in improvement of nail hardness” value is recorded as “+8.5%” and the “Superiority to citral in improvement of nail weakness” value is “+18%”. For the same compound, the Yellowing entry in data set [2] (setting [4]) is listed as “did not exhibit yellowing”. The “Subjects who noticed an overall improvement in the quality of their nails” value in data set [3] was “more than 90%”.

Turning to `CCCCCCCCC=O` [nonanal], in data set [2] (setting [4]), the Yellowing result was “did not exhibit yellowing”.

For `CCCCC/C=C/CCC=O` [trans-4-decenal], in data set [2] (setting [4]), the Yellowing entry is on record as “did not exhibit yellowing”.

`CCCCCCCCCCC=O` [undecanal]: in data set [2] (setting [4]), the Yellowing result was “did not exhibit yellowing”.

Regarding `C=CCCCCCCCCC=O` [undecylenic aldehyde, 10-undecenal], the Yellowing result in data set [2] (setting [5]) is given as “exhibited yellowing”.

Turning to “methylbutyraldehyde [reference compound]”, the Yellowing entry in data set [2] (setting [5]) is given as “exhibited yellowing”.

For the origin of these results see patent US9211242B2, “Nail-hardening cosmetic composition, use of aldehydes to harden and strengthen nails, and method for applying same” (FIABILA, priority 2009, dated 2015).
